Data from patent US20240002342A1, “HERBICIDAL DERIVATIVES” (SYNGENTA CROP PROTECTION AG, priority 2020, published 2024).

Assays:
Format in all cases: in vivo
Solanum nigrum (SOLNI) [1] = test: Pre-emergence herbicidal test; settings: 1000 g/ha unless otherwise stated
Setaria faberi (SETFA) [2] = test: Pre-emergence herbicidal test; settings: 1000 g/ha unless otherwise stated
Solanum nigrum (SOLNI) [3] = test: Post-emergence herbicidal test; settings: 1000 g/ha unless otherwise stated, evaluated after 13 days
Method: (§1) Seeds of a variety of test species are sown in standard soil in pots (Amaranthus retoflexus (AMARE), Solanum nigrum (SOLNI), Setaria faberi (SETFA), Lolium perenne (LOLPE), Echinochloa crus-galli (ECHCG), Ipomoea hederacea (IPOHE)). After 8 days cultivation under controlled conditions in a glasshouse (at 24° C./16° C., day/night; 14 hours light; 65% humidity), the plants are sprayed with an aqueous spray solution derived from the formulation of the technical active ingredient in acetone/water (50:50) solution containing 0.5% Tween 20 (polyoxyethelyene sorbitan monolaurate, CAS RN 9005-64-5). Compounds are applied at 1000 g/ha unless otherwise stated. The test plants are then grown in a glasshouse under controlled conditions in a glasshouse (at 24° C./16° C., day/night; 14 hours light; 65% humidity) and watered twice daily. After 13 days the test is evaluated for the percentage damage caused to the plant. The biological activities are shown in the following table on a five-point scale (5=81-100%; 4=61-80%; 3=41-60%; 2=21-40%; 1=0-20%).

[4] = test system: Echinochloa crus-galli (ECHCG); test: Post-emergence herbicidal test; settings: 1000 g/ha unless otherwise stated, evaluated after 13 days
Method: as §1

Lolium perenne (LOLPE) [5] = test: Post-emergence herbicidal test; settings: 1000 g/ha unless otherwise stated, evaluated after 13 days
Method: as §1

Setaria faberi (SETFA) [6] = test: Post-emergence herbicidal test; settings: 1000 g/ha unless otherwise stated, evaluated after 13 days
Method: as §1

[7] = test system: Ipomoea hederacea (IPOHE); test: Post-emergence herbicidal test; settings: 1000 g/ha unless otherwise stated, evaluated after 13 days
Method: as §1

[8] = test system: Amaranthus retoflexus (AMARE); test: Post-emergence herbicidal test; settings: 1000 g/ha unless otherwise stated, evaluated after 13 days
Method: as §1

[9] = test system: Amaranthus retoflexus (AMARE); test: Pre-emergence herbicidal test; settings: 1000 g/ha unless otherwise stated
Lolium perenne (LOLPE) [10] = test: Pre-emergence herbicidal test; settings: 1000 g/ha unless otherwise stated
[11] = test system: Ipomoea hederacea (IPOHE); test: Pre-emergence herbicidal test; settings: 1000 g/ha unless otherwise stated
[12] = test system: Echinochloa crus-galli (ECHCG); test: Pre-emergence herbicidal test; settings: 1000 g/ha unless otherwise stated

Row | Compound | percentage damage caused to the plant, SOLNI (five-point scale) (Solanum nigrum (SOLNI) [1]) | percentage damage caused to the plant, SETFA (five-point scale) (Setaria faberi (SETFA) [2]) | percentage damage caused to the plant, SOLNI (five-point scale) (Solanum nigrum (SOLNI) [3]) | percentage damage caused to the plant, ECHCG (five-point scale) [4] | percentage damage caused to the plant, LOLPE (five-point scale) (Lolium perenne (LOLPE) [5]) | percentage damage caused to the plant, SETFA (five-point scale) (Setaria faberi (SETFA) [6]) | percentage damage caused to the plant, IPOHE (five-point scale) [7] | percentage damage caused to the plant, AMARE (five-point scale) [8] | percentage damage caused to the plant, AMARE (five-point scale) [9] | percentage damage caused to the plant, LOLPE (five-point scale) (Lolium perenne (LOLPE) [10]) | percentage damage caused to the plant, IPOHE (five-point scale) [11] | percentage damage caused to the plant, ECHCG (five-point scale) [12]
1 | C=Cc1c(C)n(CC)c(-c2ccc(Cl)c(Cl)c2)c(C(=O)O)c1=O [Compound 2.001, 2-(3,4-dichlorophenyl)-1-ethyl-6-methyl-4-oxo-5-vinyl-pyridine-3-carboxylic acid] | 1 (1=0-20%) | 4 (4=61-80%) | 1 (1=0-20%) | 2 (2=21-40%) | 4 (4=61-80%) | 4 (4=61-80%) | 4 (4=61-80%) | 1 (1=0-20%) | 1 (1=0-20%) | 4 (4=61-80%) | 3 (3=41-60%) | 3 (3=41-60%)
2 | CCn1c(C)c(C(=O)O)c(=O)c(C(=O)O)c1-c1ccc(Cl)c(Cl)c1 [Compound 2.010, 2-(3,4-dichlorophenyl)-1-ethyl-6-methyl-4-oxo-pyridine-3,5-dicarboxylic acid] | 3 (3=41-60%) | 1 (1=0-20%) | 2 (2=21-40%) | 1 (1=0-20%) | 1 (1=0-20%) | 1 (1=0-20%) | 2 (2=21-40%) | 2 (2=21-40%) | 1 (1=0-20%) | 2 (2=21-40%) | 1 (1=0-20%) | 1 (1=0-20%)
3 | CCn1c(C)c(C(C)=O)c(=O)c(C(=O)O)c1-c1ccc(Cl)c(Cl)c1 [Compound 2.008, 5-acetyl-2-(3,4-dichlorophenyl)-1-ethyl-6-methyl-4-oxo-pyridine-3-carboxylic acid] | 3 (3=41-60%) | 5 (5=81-100%) | 2 (2=21-40%) | 3 (3=41-60%) | 5 (5=81-100%) | 3 (3=41-60%) | 2 (2=21-40%) | 2 (2=21-40%) | 1 (1=0-20%) | 4 (4=61-80%) | 3 (3=41-60%) | 3 (3=41-60%)
4 | C#Cc1c(C)n(CC)c(-c2ccc(Cl)c(Cl)c2)c(C(=O)O)c1=O [Compound 2.005, 2-(3,4-dichlorophenyl)-1-ethyl-5-ethynyl-6-methyl-4-oxo-pyridine-3-carboxylic acid] | 4 (4=61-80%) | 4 (4=61-80%) | 4 (4=61-80%) | 3 (3=41-60%) | 5 (5=81-100%) | 5 (5=81-100%) | 4 (4=61-80%) | 5 (5=81-100%) | 1 (1=0-20%) | 1 (1=0-20%) | 4 (4=61-80%) | 1 (1=0-20%)
5 | C=Cc1c(C)n(CC)c(-c2ccc(Cl)c(Cl)c2)c(C(=O)OC)c1=O [Compound 4.001, methyl 2-(3,4-dichlorophenyl)-1-ethyl-6-methyl-4-oxo-5-vinyl-pyridine-3-carboxylate] | 1 (1=0-20%) | 1 (1=0-20%) | 1 (1=0-20%) | 1 (1=0-20%) | 4 (4=61-80%) | 4 (4=61-80%) | 2 (2=21-40%) | 1 (1=0-20%) | 1 (1=0-20%) | 1 (1=0-20%) | 1 (1=0-20%) | 1 (1=0-20%)
